Data from the NIST ThermoML archive (doi:10.1016/j.jct.2012.05.003).

Columns and labels:
[1] = for molar entropy: Vacuum adiabatic calorimetry
[2] = Molar enthalpy of transition or fusion; conditions: Crystal; Adiabatic calorimetry

O=C1c2ccccc2-c2ccccc21 [9(9H)-fluorenone]
[1]
Conditions | molar entropy [J/K/mol] | vapor or sublimation pressure [kPa]
5 K, 101.33 kPa, Crystal | 0.2 | –
10 K, 101.33 kPa, Crystal | 1.47 | –
20 K, 101.33 kPa, Crystal | 7.81 | –
30 K, 101.33 kPa, Crystal | 16.59 | –
40 K, 101.33 kPa, Crystal | 26.02 | –
50 K, 101.33 kPa, Crystal | 35.44 | –
60 K, 101.33 kPa, Crystal | 44.68 | –
70 K, 101.33 kPa, Crystal | 53.57 | –
80 K, 101.33 kPa, Crystal | 62.15 | –
90 K, 101.33 kPa, Crystal | 70.45 | –
100 K, 101.33 kPa, Crystal | 78.48 | –
120 K, 101.33 kPa, Crystal | 93.91 | –
140 K, 101.33 kPa, Crystal | 108.7 | –
160 K, 101.33 kPa, Crystal | 123.08 | –
180 K, 101.33 kPa, Crystal | 137.18 | –
200 K, 101.33 kPa, Crystal | 151.1 | –
220 K, 101.33 kPa, Crystal | 164.93 | –
240 K, 101.33 kPa, Crystal | 178.73 | –
260 K, 101.33 kPa, Crystal | 192.51 | –
280 K, 101.33 kPa, Crystal | 206.3 | –
298.15 K, 101.33 kPa, Crystal | 218.82 | –
300 K, 101.33 kPa, Crystal | 220.1 | –
320 K, 101.33 kPa, Crystal | 233.91 | –
340 K, 101.33 kPa, Crystal | 247.73 | –
340 K, 101.33 kPa, Liquid | 291.47 | –
356.52 K, 101.33 kPa, Crystal | 259.19 | –
356.52 K, 101.33 kPa, Liquid | 305.07 | –
360 K, 101.33 kPa, Liquid | 307.89 | –
368.12 K, Liquid, Inclined piston gauge | – | 0.0161
378.12 K, Liquid, Inclined piston gauge | – | 0.0308
380 K, 101.33 kPa, Liquid | 323.92 | –
388.12 K, Liquid, Inclined piston gauge | – | 0.0562
398.12 K, Liquid, Inclined piston gauge | – | 0.0987
400 K, 101.33 kPa, Liquid | 339.6 | –
408.12 K, Liquid, Inclined piston gauge | – | 0.1672
418.12 K, Liquid, Inclined piston gauge | – | 0.2744
420 K, 101.33 kPa, Liquid | 354.94 | –
428.11 K, Liquid, Inclined piston gauge | – | 0.4382
438.11 K, Liquid, Inclined piston gauge | – | 0.6825
440 K, 101.33 kPa, Liquid | 369.98 | –
448.11 K, Liquid, Inclined piston gauge | – | 1.038
458.11 K, Liquid, Inclined piston gauge | – | 1.544
460 K, 101.33 kPa, Liquid | 384.73 | –
464.96 K, Liquid, Twin ebulliometer | – | 2
468.11 K, Liquid, Inclined piston gauge | – | 2.25
472.82 K, Liquid, Twin ebulliometer | – | 2.666
478.11 K, Liquid, Inclined piston gauge | – | 3.216
480 K, 101.33 kPa, Liquid | 399.2 | –
483.11 K, Liquid, Inclined piston gauge | – | 3.821
493.2 K, Liquid, Twin ebulliometer | – | 5.333
500 K, 101.33 kPa, Liquid | 413.42 | –
506.16 K, Liquid, Twin ebulliometer | – | 7.999
515.86 K, Liquid, Twin ebulliometer | – | 10.67
520 K, 101.33 kPa, Liquid | 427.39 | –
523.7 K, Liquid, Twin ebulliometer | – | 13.33
531.86 K, Liquid, Twin ebulliometer | – | 16.66
538.62 K, Liquid, Twin ebulliometer | – | 19.93
547.52 K, Liquid, Twin ebulliometer | – | 25.02
547.53 K, Liquid, Twin ebulliometer | – | 25.02
556.48 K, Liquid, Twin ebulliometer | – | 31.17
565.49 K, Liquid, Twin ebulliometer | – | 38.56
574.56 K, Liquid, Twin ebulliometer | – | 47.37
583.67 K, Liquid, Twin ebulliometer | – | 57.81
592.85 K, Liquid, Twin ebulliometer | – | 70.11
602.07 K, Liquid, Twin ebulliometer | – | 84.53
611.34 K, Liquid, Twin ebulliometer | – | 101.32
620.67 K, Liquid, Twin ebulliometer | – | 120.78
630.05 K, Liquid, Twin ebulliometer | – | 143.23
639.47 K, Liquid, Twin ebulliometer | – | 169
648.95 K, Liquid, Twin ebulliometer | – | 198.46
658.48 K, Liquid, Twin ebulliometer | – | 231.99
668.07 K, Liquid, Twin ebulliometer | – | 269.98

Conditions | mass density [kg/m3]
[1], 373 K, 101.33 kPa, Liquid, Pycnometric method | 1090

Conditions | Triple point temperature [K]
[1], Crystal, Adiabatic calorimetry | 356.52

Conditions | Molar enthalpy of transition or fusion [kcal/mol]
[2] | 3.9101
